This is an account of results in patent US20240016795A1, “BROMODOMAIN INHIBITORS FOR ANDROGEN RECEPTOR-DRIVEN CANCERS” (FORMA Therapeutics, Inc., priority 2020, published 2024).

One data set concerns FKBP5. Nature of the data set: qPCR gene expression in VCaP, FKBP5. It counts as cell-based. Particulars: Homo sapiens, 24 h. On the procedure: (§1) RNA was extracted using Qiacube RNAeasy Mini (Qiagen). For all genes tested, the qPCR reactions were carried out in triplicate with 250 ng RNA per reaction and Taqman® primer-probes. GAPDH was used as a housekeeping gene.
Background: In qPCR the cycle at which signal appears reflects the starting amount.

The test system of another data set is XBP1. The experiment in a line: Taqman gene expression in AR-positive breast cancer cells, XBP1. It counts as cell-based. As to conditions: 24 hours, read-out: IC50, XBP1 mRNA. On the procedure:
AR-positive breast cancer cells were exposed to increasing concentrations of compounds for 24 hours. RNA was extracted and gene expression measured using Taqman® assays for TMPRSS2 and XBP1.

The next data set has as its system MDA-MB-231. The experiment in a line: 10-day CellTiter-Glo antiproliferative assay, MDA-MB-231. Format: cell-based. As to conditions: Homo sapiens, MDA-MB-231, 240 h, 10-day exposure, AR Low, ER −, Her2 −. On the procedure: (§2) Breast cell lines were cultured according to the distributor's recommendations. The following day, cells were exposed to compounds up to 10 days. Cell viability was assessed using a CellTiter-Glo® assay (Promega) at the end of the incubation period. The growth inhibitory effect was assessed by the concentration inhibiting growth by 50% using a nonlinear regression equation and a variable slope (Graphpad Prism). The mRNA expression levels for the androgen receptor (HUGO: AR) was determined from the DepMap Portal database (release 19Q2).
A general note: In ATP-based viability assays light output follows the ATP content of the culture.

The next data set relates to CAMA1. Nature of the data set: 10-day CellTiter-Glo antiproliferative assay, CAMA1. It counts as cell-based. As to conditions: Homo sapiens, CAMA-1, 240 h, 10-day exposure, AR High, ER +, Her2 −. On the procedure: as §2
Another data set has as its system SPDEF. Nature of the data set: qPCR gene expression in VCaP, SPDEF. Format: cell-based. Particulars: Homo sapiens, 24 h. On the procedure:
as §1

The test system of the next data set is VCaP. The experiment in a line: 10-day prostate cancer cell proliferation assay, VCaP. It counts as cell-based. As to conditions: Homo sapiens, VCaP, 240 h; 10 days exposure; WT, AR amplification, androgen-dependent. On the procedure:
(§3) Prostate cell lines were obtained from ATCC or DSMZ and cultured according to the distributor's recommendations. Prostate cancer cells were plated and incubated overnight. […] Cell viability was assessed using a CellTiter-Glo® assay (Promega) after 10 days drug exposure. The growth inhibitory effect was assessed by the concentration inhibiting growth by 50% using a nonlinear regression equation and a variable slope (Graphpad Prism).

Data set [1] relates to AR+ prostate cancer cell lines (LnCaP, VCaP, 22Rv1). Nature of the data set: 10-day proliferation assay, all AR+ prostate cancer cell lines. As to conditions: 240 h; 10-day assay; read-out: growth inhibitory effect (IC50), all AR+ cell lines. Format: cell-based. On the procedure: Two AR-negative prostate cancer cell lines DU145 and PC-3 were also evaluated.
as §3

A further data set concerns AR. Nature of the data set: AR protein level by western blot in prostate cancer cells. Format: cell-based.
The test system of a further data set is PC-3. The experiment in a line: 10-day prostate cancer cell proliferation assay, PC-3. It counts as cell-based. As to conditions: Homo sapiens, PC-3, 240 h; 10 days exposure; AR negative. On the procedure: as §3
The subject of another data set is SORD. Nature of the data set: qPCR gene expression in 22Rv1, SORD. Particulars: Homo sapiens, 22Rv1, 24 h. Format: cell-based. On the procedure: as §1
The subject of the next data set is MYC. Nature of the data set: qPCR gene expression in VCaP, MYC. Format: cell-based. As to conditions: Homo sapiens, 24 h. On the procedure: as §1
The test system of another data set is HCC1187. Nature of the data set: 10-day CellTiter-Glo antiproliferative assay, HCC1187. As to conditions: Homo sapiens, HCC1187, 240 h, 10-day exposure, AR High, ER −, Her2 −. Format: cell-based. On the procedure:
as §2

Data set [2] relates to AR+ triple negative breast cancer xenograft. The experiment in a line: AR+ triple negative breast cancer cell line derived xenograft. Particulars: 50 mg/kg orally daily. Format: in vivo, NOD SCID mice. On the procedure:
Briefly, AR-positive breast cancer tumor cells (1×107) were implanted subcutaneously in the flank of 6-8-week-old NOD SCID mice. Mice were randomized, and treatment started when mean tumor size reached 160 mm^3 (8 mice per cohort). […] Tumor volume (TV) was measured twice weekly by caliper and the tumor volume (mm^3) calculated as follows: TV=a×b×b/2, where “a” and “b” are long and short diameters of a tumor, respectively.
The average body weight loss was 3.7%.
The study was completed using methods analogous to those described in Example 7, above.
Three dosing cycles were completed for mice within these cohorts.
Mice in the 30 mg/kg cohort were dosed daily for three weeks.
Tumor volume was assessed at Day 14, Day 17, Day 21, Day 24, and Day 27 of the study.

The subject of data set [3] is AR target genes. Nature of the data set: Reduction of AR target genes in VCaP cells. It counts as cell-based. As to conditions: Homo sapiens, 24 hr exposure. On the procedure: as §1
In the next data set the test system is KLK3 (PSA). Nature of the data set: qPCR gene expression in 22Rv1, KLK3 (PSA). Particulars: Homo sapiens, 22Rv1, 24 h. Format: cell-based. On the procedure:
as §1

The subject of a further data set is LNCaP. Nature of the data set: 10-day prostate cancer cell proliferation assay, LNCaP. It counts as cell-based. As to conditions: Homo sapiens, LNCaP, 240 h; 10 days exposure; T878A/WT, androgen-dependent. On the procedure: as §3
The subject of the next data set is TMPRSS2. Nature of the data set: qPCR gene expression in VCaP, TMPRSS2. Format: cell-based. Particulars: Homo sapiens, 24 h. On the procedure: as §1
In data set [4] the test system is AR target genes. The experiment in a line: Reduction of AR target genes in 22Rv1 cells. It counts as cell-based. As to conditions: Homo sapiens, 24 hr exposure. On the procedure:
as §1

The test system of a further data set is CAL148. Nature of the data set: 10-day CellTiter-Glo antiproliferative assay, CAL148. It counts as cell-based. As to conditions: Homo sapiens, CAL-148, 240 h, 10-day exposure, AR Low, ER −, Her2 −. On the procedure: as §2

For the compound `COC(=O)N1c2ccc3c(nc([C@H](O)c4cc(F)ccc4OC)n3[C@@H]3CCC[C@@H](C(=O)O)C3)c2CC[C@@H]1C` [Compound 1, (1R,3R)-3-[(7S)-2-[(R)-(5-fluoro-2-methoxyphenyl)(hydroxy)methyl]-6-(methoxycarbonyl)-7-methyl-3H,6H,7H,8H,9H-imidazo[4,5-f]quinolin-3-yl]cyclohexane-1-carboxylic acid], the IC50 (usually the point on the concentration scale where inhibition reaches its midpoint) with FKBP5 was > 0.1 µM; in the data set on XBP1, < 0.1 µM; with MDA-MB-231, > 1 µM; in the data set with CAMA1, < 0.2 µM; in the data set on SPDEF, > 0.1 µM; with VCaP, 0.5 to 1 µM. Besides, the IC50 in data set [1] was 0.5 to 1.5 µM; with PC-3 it was > 1 µM; with SORD, > 0.1 µM; with MYC it was 0.05 to 0.1 µM; with HCC1187, 0.2 to 0.5 µM; in the data set with AR target genes [3] it was < 0.5 µM. For the same compound, the half-maximal inhibitory concentration (IC50) in the data set with KLK3 (PSA) was 0.01 to 0.05 µM; with LNCaP, > 1 µM; with TMPRSS2 it was 0.01 to 0.05 µM; in the data set on AR target genes [4], < 0.5 µM; in the data set with CAL148, > 1 µM. In addition, the “return of AR to baseline level following removal of compound” value in the data set with AR (22Rv1, after a 24 hr exposure) is ≤ 24 h. The AR protein level entry in the data set with AR (androgen-independent and androgen-dependent prostate cancer cell lines, western blot) is given as “dose dependent reduction”. In addition, the “average body weight loss” value in [2] is 3.7%. Moreover, the “tumor growth inhibition (TGI)” value in data set [2] (end of treatment, versus vehicle control) is listed as 104%.
